Assay results published in patent US7217800B2, “Peptide leukotriene receptor” (Astellas Pharma Inc., priority 1999, dated 2007).

Legend:
rat LTC4 receptor = target: T1, rat LTC4 receptor (Rattus norvegicus, UniProt Q924T9); experiment: Increase of intracellular Ca++ concentration, HEK293-EBNA cells transfected with pEF-BOS-rat LTC4 receptor; assay type: cell-based; conditions: Logistic regression
T1 construct: expressed in transfected cells
T1 sequence (Q924T9 1-309): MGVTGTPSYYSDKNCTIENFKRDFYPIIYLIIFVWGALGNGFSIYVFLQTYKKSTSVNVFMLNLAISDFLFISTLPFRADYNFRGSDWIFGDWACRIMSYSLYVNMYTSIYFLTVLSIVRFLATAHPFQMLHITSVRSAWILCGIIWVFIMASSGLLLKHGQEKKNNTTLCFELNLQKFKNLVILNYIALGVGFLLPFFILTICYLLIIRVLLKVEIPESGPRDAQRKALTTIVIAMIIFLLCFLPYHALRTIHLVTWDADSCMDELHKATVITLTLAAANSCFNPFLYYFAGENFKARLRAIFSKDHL
Method: (§1) 2.5×10^4 cells per well of HEK293-EBNA cells were inoculated to 96 well Black/clear bottom plate, collagen type I coated (BECTON DICKINSON). After culturing for 24 hours, 40 ng per well of pEF-BOS-PSECO 146 or pEF-BOS (empty vector) were transfected into the cells using FuGENE6 (Boeringer Mannheim). 24 hours after gene transfection, the medium was discarded, 100 μl per well of DMEM containing 4 μM Fluo-3, AM (Molecular Probe), 0.004% pluronic acid, and 10% FBS was added and incubated for 1 hour at 37° C. Following incubation, cells were washed four times with Hanks BSS containing 20 mM HEPES (GIBCO), then 100 μl per well of Hanks BSS containing 20 mM HEPES was added. The time course of the changes of intracellular Ca^++ concentration was measured using FLIPR (Molecular Device).
This plasmid was designated as pEF-BOS-rat LTC4 receptor.
The changes of intracellular Ca^++ concentration were measured using HEK293-EBNA cells under the same condition as in Example 5.

pig LTC4 receptor [1] = target: T2, pig LTC4 receptor (Sus scrofa, UniProt Q95N03); experiment: Increase of intracellular Ca++ concentration, HEK293-EBNA cells transfected with pEF-BOS-pig LTC4 receptor; assay type: cell-based; conditions: Logistic regression
T2 construct: expressed in transfected cells
T2 sequence (Q95N03 1-345): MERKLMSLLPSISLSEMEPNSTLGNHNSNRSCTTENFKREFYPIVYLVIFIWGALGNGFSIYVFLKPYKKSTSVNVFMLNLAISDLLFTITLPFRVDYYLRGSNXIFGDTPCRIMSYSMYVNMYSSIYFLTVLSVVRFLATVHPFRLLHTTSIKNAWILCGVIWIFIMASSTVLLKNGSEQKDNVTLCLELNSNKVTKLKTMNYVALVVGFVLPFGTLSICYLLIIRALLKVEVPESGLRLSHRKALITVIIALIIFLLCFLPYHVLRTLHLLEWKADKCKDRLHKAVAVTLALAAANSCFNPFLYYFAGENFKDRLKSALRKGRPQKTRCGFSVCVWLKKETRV
Method: as §1
Further, the changes of intracellular Ca^++ concentration were measured using HEK293-EBNA cells under the same condition as in Example 5.

[2] = tested on: human coronary arterial smooth muscle cells; experiment: Increase of intracellular Ca++ concentration by LTC4 in coronary arterial smooth muscle cells; assay type: cell-based
Method: The medium was discarded, and by adding 100 μl/well of Hanks BSS containing 4 μM Fluo-3, AM (Molecular Probe), 0.004% pluronic acid, 1% FBS, 20 mM HEPES, and 2.5 mM probenecid, the cells were incubated for 1 hour at 37° C. […] It is well known that the increase of intracellular Ca^++ concentration in blood vessel smooth muscle cells causes vasoconstriction (Bolton, T. B., et al. Physiol. Rev. (1979) 59, 606–718).

pig LTC4 receptor [3] = target: T2, pig LTC4 receptor; experiment: [3H]-LTC4 saturation binding, membrane fraction of COS-1 cells transfected with pEF-BOS-pig LTC4 receptor
Method: 2×10^6 COS-1 cells were inoculated to a […] culture flask and cultured for 36 hours, and then, 50 μg of pEF-BOS-PSEC0146 or pEF-BOS (empty vector) was transfected using FuGENE6 (Boeringer Mannheim) Cells cultured for 36 hours following gene transfection were recovered and washed, then suspended in 20 mM Tris-HCl (pH 7.4), 5 mM EDTA and homogenized with a Polytron homogenizer. After ultracentrifugation, the homogenized cells were suspended in 50 mM HEPES (pH 7.4), 40 mM MgCl2, 1 mM EGTA as a membrane fraction. 0.5 to 14×10^−9 M of [^3H]-LTC4 (Daiichi Pure Chemicals) at final concentration was added to 5 μg of the membrane fraction, and incubated 1 hour at room temperature in 250 μl solution comprising 50 mM HEPES (pH 7.4), 40 mM MgCl2, 1 mM EGTA, 5 mM L-Serine, 10 mM Borate, 2 mM L-Cystein, and 2 mM L-Glycine. Thereafter, the membrane fraction was recovered on a glass filter using a cell harvester. Micro-scintillator was added to the glass filter and the total binding to the membrane fraction was measured by using a liquid scintillation counter. […]
First, to express the protein encoded by the cDNA, the cDNA was obtained by PCR using pig genomic DNA as the template. The nucleotide sequence of primers required for PCR was designed based on the nucleotide sequence information determined in Example 15. […]

LTC4 receptor [4] = target: T3, LTC4 receptor (Homo sapiens, UniProt Q9NS75); experiment: Inhibition of [3H]-LTC4 binding, membrane fraction of CHO cells stably expressing LTC4 receptor; conditions: 0.5×10^−9 M [3H]-LTC4; 15 μg CHO membrane fraction; 1 hour, room temperature
T3 construct: expressed in transfected cells; whole cells or membrane fraction
T3 sequence (Q9NS75 1-346): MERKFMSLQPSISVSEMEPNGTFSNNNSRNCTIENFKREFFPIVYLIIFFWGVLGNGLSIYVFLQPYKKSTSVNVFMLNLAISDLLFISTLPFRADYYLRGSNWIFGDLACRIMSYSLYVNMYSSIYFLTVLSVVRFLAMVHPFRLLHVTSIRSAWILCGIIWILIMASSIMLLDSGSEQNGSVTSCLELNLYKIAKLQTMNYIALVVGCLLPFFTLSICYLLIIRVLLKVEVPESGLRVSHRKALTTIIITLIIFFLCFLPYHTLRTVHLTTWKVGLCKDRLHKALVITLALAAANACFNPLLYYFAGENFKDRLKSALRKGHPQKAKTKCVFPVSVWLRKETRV
Method: Micro-scintillator was added to the glass filter and the radioactivity was measured by a liquid scintillation counter. […] Compound A was produced as follows.

LTC4 receptor [5] = target: T3, LTC4 receptor; experiment: Inhibition of increase of intracellular Ca++ concentration elicited by LTC4 or LTD4, CHO cells stably expressing LTC4 receptors; assay type: cell-based
Method: After culturing for 24 hours, medium was discarded and 100 μl/well of Hanks BSS containing 4 μM Fluo-3, AM (Molecular Probe), 0.004% pluronic acid, 1% FBS, 20 mM HEPES, and 2.5 mM probenecid was added, and incubated at 37° C. for 1 hour.
The changes of intracellular Ca^++ concentration were measured using FLIPR with the same condition as in Example 6.

LTC4 receptor [6] = target: T3, LTC4 receptor; experiment: Cell migration of CHO cells expressing LTC4 receptors elicited by LTC4; assay type: cell-based; conditions: compound in upper layer, 3 nM LTC4 in lower layer
Method: After culturing for 4 hours in a CO2 incubator at 37° C., the frame filter was fixed in methanol and stained with Diff-Quik staining kit (Kokusai-Shiyaku). The upper surface (the side onto which the cells were inoculated) of the filter was wiped, and after air drying, absorbance at 595 nm was measured with the plate reader (Molecular Devices).

SMILES	EC50 (rat LTC4 receptor) [nM]	EC50 (pig LTC4 receptor [1]) [nM]	increase of intracellular Ca++ concentration ([2]; 10^−6 to 10^−9 M LTC4)	maximum binding (Bmax) (pig LTC4 receptor [3]; Scatchard analysis, COS-1 membrane fraction) [pmol/mg protein]	Kd (pig LTC4 receptor [3]; read-out: dissociation constant of LTC4 binding (Kd), Scatchard analysis, COS-1 membrane fraction) [nM]	IC50 (LTC4 receptor [4]) [nM]	IC50 (LTC4 receptor [5]) [nM]	inhibition of increase of intracellular Ca++ concentration elicited by LTD4 (LTC4 receptor [5]; CHO stable cells, LTD4 stimulus)	inhibition of increase of intracellular Ca++ concentration by LTC4 ([2]; 5 min pre-treatment)	inhibition of cell migration by LTC4 (LTC4 receptor [6])
CCCCC/C=C\C\C=C/C=C/C=C/[C@@H](SC[C@H](NC(=O)CC[C@H](N)C(=O)O)C(=O)NCC(=O)O)[C@@H](O)CCCC(=O)O [LTC4, leukotriene C4]	19	5	induce increase of the intracellular Ca^++ concentration in a dose-dependent manner	0.25	2.89					
CCCCC/C=C\C\C=C/C=C/C=C/[C@@H](SC[C@H](N)C(=O)NCC(=O)O)[C@@H](O)CCCC(=O)O [LTD4, leukotriene D4]	7.7	3.3								
CCCn1c(-c2ccc3c(S(=O)(=O)Nc4onc(C)c4C)cccc3c2)nc2ccccc21 [Compound A, N-(3,4-dimethyl-5-isoxazolyl)-6-(1-propyl-1H-benzimidazol-2-yl) -1-naphthalenesulfonamide]						1200	2300	inhibited dose-dependently	inhibit dose-dependently	inhibits dose-dependently
